Read-outs that look alike come from different tables or passages of the source. Each block holds one molecule with its values, some of them ahead of it. Positions of bridges follow the written chain, without caps; N, C: chain ends. No end group written: not given here.
Legend:
experimental animals = conditions: micromolar levels; cited from earlier work
sickle red blood cells [1] = conditions: cited from earlier work
sickle patients = conditions: low sodium diet; cited from earlier work
[2] = Safety observation in rats (behavior, gross examination, histology); format: in vivo
Procedure: (§1) An animal study was then conducted to determine the absorption and elimination and characteristics of the phlorizin benzylazide and the resulting level of safety. Three adult rats of approximately 450 grams each were injected intraperitoneally at zero time in 1, 2 and 3 mg doses of tritiated phlorizin benzylazide (875,000 cpm/mg). Thereafter, serial tail blood samples were taken at varying times and analyzed for tritium. Maximal absorption of the compound from the peritoneal compartment was slow (note FIG. 5) and maximum blood level concentrations were obtained only after about 20 hours. The initial very rapid entry and elimination of a small fraction of the radioactivity was probably tritiated H2 O and other radioactive impurities. […] The absorption rate constant was estimated to be 0.07 hr^-1. […] This feature could, of course, offer advantages for therapy in a sickle cell crisis wherein long term effectiveness is desired.

[3] = system: normal human red blood cells; assay: Hemolysis of normal human red blood cells (turbidity at 610 nm); format: cell-based; conditions: for t1/2 (time required to achieve 50% of the total hemolysis): approx. 4° C., n=4
Procedure: (§2) Human red blood cells were obtained by venepuncture into Na citrate or EDTA vacutainers. They were used directly or stored in serum at 4° C. for various times. Serum and leucocytes were removed by siphoning and the settled red blood cells were washed once and finally made to a 0.15% suspension with isotonic NaCl containing 5 mM KH2 PO4 (pH 6.2). These cells were kept at 2° C. for selected periods of time during a first incubation. From this point on, all experiments were performed in subdued light to protect the light-sensitive phlorizin benzylazide. The phlorizin benzylazide obtained from the synthesis described above was added at the desired concentrations, and during this variable temperature second incubation (2°-4° C. in presence of phlorizin benzylazide), the turbidity of the cell suspension was monitored at 610 nm with a continuously recording spectrophotometer to measure hemolysis. A relatively constant level of absorbance of light indicates decreased hemolysis occurring at the lower dosage and this was verified by concomitant counting of cells with a hemacytometer. Some typical data are shown in FIG. 1 showing the change in absorbance of light (note axis A) when the drug was added (at zero time).
(§3) The dose-response curve of phlorizin benzylazide acting as a hemolytic agent of normal cells is shown in FIG. 3 and the following table:
(§4) In FIG. 3, potency is expressed as the ratio, % hemolysis/t1/2, where t1/2 represents the time (seconds) required to achieve 50% of the total hemolysis produced by the particular concentration of the compound within the time of our measurements (700 sec). The cells used for these experiments were 2 hours old, and subjected to an incubation for 30 minutes before the addition of phlorizin benzylazide and continuing thereafter at approximately 4° C. (n=4). […] Thus, this blood level concentration provides anti-sickling action by reducing the concentration of hemoglobin S with an influx of water and/or salt into the cells. Further, this is accomplished with little or no red blood cell lysis and, therefore, minimum adverse side effects.

[4] = as above; format: cell-based; conditions: human, red blood cells, cells 2 hours old, 30 min incubation, approx. 4° C., within 700 sec, n=4
Procedure: as §2, §3, §4

[5] = system: normal human red blood cells; assay: Initial photoaffinity-labeling experiments: effect on red blood cells before illumination; format: cell-based; conditions: isotonic buffer; time and drug dose-dependent
From the text: (§5) From the above, it is clear that a need exists for a safe, effective and clinically useful compound for the treatment of sickle cell anemia. […] After allowing the compound to associate with its specific membrane receptor, activation with light was expected to result in relatively specific, covalent, irreversible labeling of the transporter.

human red blood cells = assay: Red cell swelling / mean cell volume (Coulter Counter); format: cell-based
Procedure: as §2
In these experiments (n=2) red cells had been stored in serum for 30 hours, and experienced a first incubation for 60 min at 4° C. and a second incubation with 12.5 μM phlorizin benzylazide at 4° C. for 5 and 10 min. […] The Coulter Counter, an automated instrument which determines the number and volume of cells passing through an analysis chamber, was used to make these measurements.

sugar transporter = assay: Interaction with the sugar (glucose) transporter of human red blood cells; format: biochemical
From the text: as §5

sickle red blood cells [6] = assay: Inhibition of sickling induced by deoxygenation in vitro (whole blood of sickle cell disease patients, phase microscopy); format: cell-based, human; conditions: 12.5 μM, 37° C.
Procedure: Whole blood was obtained from several volunteer sickle cell disease patients and was stored for several days at 4° C. […] Instead, whole blood was diluted into pre-warmed (37° C.) isotonic phosphate-buffered saline (± phlorizin benzylazide, 12.5 μM) which was then deoxygenated by continuous passage of an 100% Argon stream (1 liter/min) over a rotating thin film of the suspended cells. Aliquots were periodically taken, without O2 exposure, and fixed in 1% glutaraldehyde. These samples were then examined under phase microscopy for the degree of sickling by counting fields of at least 100 cells using a single blind, experimental protocol.
The data shown in FIG. 4 illustrate that without phlorizin benzylazide present, about 35-40% of the cells from these patients assumed the typical sickle shape (only cells having a 3:1, length:width ratio were considered to be sickled); whereas, with the phlorizin benzylazide, the deoxygenation caused a maximum increase of 5% more than the 10% of cells already sickled at zero time. Actually, the effect of phlorizin benzylazide is even more dramatic. […] The 10-15% sickled cells present at zero time are probably the so-called irreversibly sickled cells (ISC).

[7] = Absorption and elimination of tritiated compound in rats (blood tritium after intraperitoneal injection); format: in vivo; conditions: for Cmax: rat approx. 450 g, read-out: peak concentration in the blood
Procedure: as §1

[8] = at appropriate levels in the blood stream; cited from earlier work
[9] = 16 (head: κ M) phlorizin benzylazide
[10] = 31 (head: κ M) phlorizin benzylazide
[11] = 62 (head: κ M) phlorizin benzylazide
[12] = 12.5 μM, 4° C., 5 and 10 min, n=2 (FIG. 2)

Molecule: CC[C@@]1([C@@H]2O[C@@H]([C@H]3O[C@@](O)(CO)[C@H](C)C[C@@H]3C)C[C@@H]2C)CC[C@H]([C@]2(C)CC[C@]3(C[C@H](O)[C@@H](C)[C@@H]([C@@H](C)[C@@H](OC)[C@H](C)C(=O)O)O3)O2)O1 [Monensin]
- toxicity (experimental animals): highly toxic
- deformability of the red blood cell (sickle red blood cells [1]): some improvemement in the deformability of the red blood cell

Molecule: anti-diuretic hormone: anti-diuretic hormone given to sickle patients on a low sodium diet to reduce plasma Na+-osmolality (CYFQNCPRG-NH2; disulfide 1-6; UniProt P01185 20-28, looked up)
- clinical success (reduction of plasma Na+ osmolality / cell hemoglobin S concentration) (sickle patients): very limited success

- lysis during swelling experiment (human red blood cells; [12]): essentially no lysis
- Cmax ([7]; intraperitoneal, 1 mg): 2.5 µM
- Cmax ([7]; intraperitoneal, 2 mg): 5.1 µM
- Cmax ([7]; intraperitoneal, 3 mg): 6.3 µM
- elimination process ([7]; rat, intraperitoneal): first order process
- mean half life (elimination) ([7]; rat, intraperitoneal): 75 h
- maximal absorption from the peritoneal compartment ([7]; rat, intraperitoneal (FIG. 5)): slow
- time of maximum blood level concentration ([7]; rat, intraperitoneal, 1, 2 and 3 mg): about 20 hours
- absorption rate constant ([7]; rat, intraperitoneal, estimated): 0.07 h⁻¹
Molecule: [N-]=[N+]=Nc1ccc(Cc2c(O)cc(O[C@@H]3O[C@H](CO)[C@@H](O)[C@H](O)[C@H]3O)c(C(=O)CCc3ccc(O)cc3)c2O)cc1 [phlorizin benzylazide]
- gross examination of all tissues ([2]; rat, 1, 2 and 3 mg intraperitoneal): unremarkable
- behavioral abnormalities ([2]; rat, 1, 2 and 3 mg intraperitoneal, 5 days (lowest dosage) or 7 weeks): None of the animals exhibited any unusual behavioral abnormalities
- histological examination of the liver and kidney ([2]; rat, two older animals (7 weeks)): no pathology
- t1/2 (time required to achieve 50% of the total hemolysis) [3, 9]: 7.5 min
- t1/2 (time required to achieve 50% of the total hemolysis) [3, 10]: 4.33 min
- t1/2 (time required to achieve 50% of the total hemolysis) [3, 11]: 3.88 min
- cell lysis ([3]; concentrations below 10 μM): no cell lysis was observed
- cell lysis, extent and rate (FIG. 1) ([3]; higher vs lower level of phlorizin benzylazide, 2°-4° C.): a greater percentage of cell lysis (an absorbance of 0.087 represents 100% lysis) but the rate at which the cells burst was much faster
- hemolysis at 4 µM ([4]; 4 (head: κ M) phlorizin benzylazide): 0%
- hemolysis at 8 µM ([4]; 8 (head: κ M) phlorizin benzylazide): 0%
- hemolysis at 16 µM [4, 9]: 31 ± 8.6%
- hemolysis at 31 µM [4, 10]: 41 ± 9.6%
- hemolysis at 62 µM [4, 11]: 66 ± 8%
- effect on red blood cells before illumination [5]: the red blood cells were found to swell and, in a time and drug dose-dependent manner, burst even in an isotonic buffer
- mean cell volume (human red blood cells; [12]): a time dependent increase in mean cell volume
- cell swelling (human red blood cells; low phlorizin benzylazide levels, approx. 4° C.): cell swelling occurred
- affinity for the sugar transporter (sugar transporter; subdued light): high, but reversible
- inhibition of the transfer mechanism (sugar transporter; sugar transporter): potent inhibitor
- cell shape on deoxygenation (sickle red blood cells [6]; 100% Argon): a uniform spherocytosis was induced in most cells
- maximum increase of sickled cells on deoxygenation, over the 10% already sickled at zero time (sickle red blood cells [6]; 100% Argon, without compound about 35-40% sickled (FIG. 4)): 5%
- hemolysis in the deoxygenation experiment (sickle red blood cells [6]; Example 2): no significant hemolysis

Molecule: O=C(CCc1ccc(O)cc1)c1c(O)cc(O)cc1O [phloretin]
- toxic effects [8]: toxic effects at all sites in the body

From patent US4665058A, “Compositions and method of treatment for sickle cell anemia” (The University of Kentucky Research Foundation, priority 1985, dated 1987)
